From patent US11066447B2, “Aureobasidium derivatives and methods of synthesis” (AureoGen Biosciences, Inc., priority 2016, dated 2021) come the findings set out here.

Test [1] has as its system A. fumigatus MMX 6781 ATCC MYA-4609. As to the kind of experiment: MIC/MEC assay (CLSI microdilution). It is filed as cell-based. The following applies: Aspergillus fumigatus; for MIC: 48 h, RPMI plus 0.002% Tween-80, read-out: MIC; for minimal effective concentration: RPMI plus 0.002% Tween-80, 48 hr. As to the method:
(§1) Aureobasidin and test compounds (i.e., AbA derivatives of the present invention) were received from Kalexsyn, Inc. (Kalamazoo, Mich.) as powder and were stored at 4° C. until the day of assay. […] amphotericin was obtained from Sigma Aldrich and stored under like conditions. […] Ethanol (95%) was used as a solvent and diluent for all AbA compounds. Amphotericin B was tested from 0.06-64 μg/mL. Amphotericin B (Sigma Aldrich; St. Louis, Mo.; Cat No. A9528-100MG, Lot No. 120M4087) was dissolved and diluted with dimethylsulfoxide (DMSO; Sigma Aldrich; St. Louis, Mo.; Cat No. 472301 Lot No. SHBD2072V).
(§2) The solvents were added to the test agents and the stock solutions stood for approximately 1 hr at room temperature prior to use to auto sterilize. Stock solutions were prepared at 40× the desired top concentration in the test plate.
(§3) All of the test isolates were originally received from either the American Type Culture Collection (ATCC), clinical labs, or directly from Aureogen Biosciences. Organisms stored by Micromyx were cultured on agar medium appropriate to each organism. Colonies were picked by swab from the isolation plates and put into suspension in appropriate broth containing cryoprotectant. The suspensions were aliquoted into cryogenic vials and maintained at −80° C.
(§4) Prior to testing, Candida isolates were streaked from the frozen vials on Sabouraud dextrose agar. The yeast isolates were incubated for 48 hours at 35° C. before use. The fungal isolates were obtained from enumerated fungal stocks previously prepared at Micromyx and stored in phosphate buffered saline at 4° C.
(§5) Test Media. The medium employed for the MIC assay was RPMI-1640 medium from HyClone Laboratories (Logan, Utah; Lot No. AYB60287A). The medium was prepared according to Clinical and Laboratory Standards Institute (CLSI) guidelines (1, 2), and modified to include 0.002% Tween-80. Candida parapsilosis ATCC 22019 (MMX 2323) and Aspergillus fumigatus ATCC MYA-3626 (MMX 5280) were also tested without Tween-80 to provide data for the quality control of amphotericin B in accordance with CLSI (3) and to assess the effect of Tween-80 on the activity of the test agents.
(§6) Test Procedure. The MIC assay method followed the procedure described by CLSI (1, 2) and employed automated liquid handlers to conduct serial dilutions and liquid transfers. Automated liquid handlers included the Multidrop 384 (Labsystems, Helsinki, Finland), Biomek 2000 and Biomek FX (Beckman Coulter, Fullerton Calif.). The wells in columns 2-12 in standard 96-well microdilution plates (Costar 3795) were filled with 150 μl of the appropriate diluent (95% EtOH for investigational compounds, 100% DMSO for amphotericin B). These assay plates would become the ‘mother plates’ from which the assay ‘daughter plates’ would be prepared. The drugs (300 μL at 40× the desired top concentration in the test plates) were dispensed into the appropriate well in Column 1 of the mother plates. The Biomek 2000 was used to make two-fold serial dilutions through Column 11 in the “mother plate”. The wells of Column 12 contained no drug and served as the organism growth control wells.
(§7) The daughter plates were loaded with 185 μL per well on the Multidrop 384 with RPMI plus 0.002% Tween-80 or RPMI containing no Tween-80 for the testing of the two QC isolates. The daughter plates were prepared on the Biomek FX instrument which transferred 5 μL of drug solution from each well of a mother plate to each corresponding well of each daughter plate in a single step.
(§8) A standardized inoculum of each organism was prepared per CLSI methods (1, 2). For the Candida isolates, colonies were picked from the streak plate and a suspension was prepared in RPMI to equal a 0.5 McFarland standard. This suspension was diluted 1:100 in RPMI resulting in a final concentration of approximately 0.5-2.5×10^3 CFU/mL. […]
A general note: Broth dilution looks for growth in wells or tubes with falling amounts of substance.

Test [2] concerns A. niger MMX 0624 ATCC 16888. The experiment in a line: MIC/MEC assay (CLSI microdilution). It is filed as cell-based. The settings on record: Aspergillus niger, ATCC16888, 48 h; for minimal effective concentration: RPMI plus 0.002% Tween-80, read-out: MEC; for MIC: RPMI plus 0.002% Tween-80, read-out: MIC. As to the method:
as §1, §2, §3, §4, §5, §6, §7, §8

Another test relates to A. fumigatus MMX 5944. As to the kind of experiment: MIC/MEC assay (CLSI microdilution). The following applies: Aspergillus fumigatus, MMX5944, 48 h; for minimal effective concentration: RPMI plus 0.002% Tween-80; for MIC: RPMI plus 0.002% Tween-80, read-out: MIC. It is filed as cell-based. Here is the method: as §1, §2, §3, §4, §5, §6, §7, §8
Another test has as its system A. flavus MMX 5948. The experiment in a line: MIC/MEC assay (CLSI microdilution). The following applies: Aspergillus flavus, MMX5948, 48 h; for minimal effective concentration: RPMI plus 0.002% Tween-80; for MIC: RPMI plus 0.002% Tween-80, read-out: MIC. It is filed as cell-based. As to the method: as §1, §2, §3, §4, §5, §6, §7, §8
The subject of test [3] is A. fumigatus MMX 6782 ATCC 13073. The experiment in a line: MIC/MEC assay (CLSI microdilution). The following applies: Aspergillus fumigatus, ATCC13073, 48 h; for minimal effective concentration: RPMI plus 0.002% Tween-80, read-out: MEC; for MIC: RPMI plus 0.002% Tween-80, read-out: MIC. It is filed as cell-based. As to the method:
as §1, §2, §3, §4, §5, §6, §7, §8

The subject of test [4] is A. fumigatus MMX 5280 ATCC MYA-3626. As to the kind of experiment: MIC/MEC assay (CLSI microdilution). The settings on record: Aspergillus fumigatus, 48 h. It is filed as cell-based, Aspergillus fumigatus. Here is the method:
as §1, §2, §3, §4, §5, §6, §7, §8

The test system of test [5] is C. parapsilosis MMX 2323 ATCC 22019. As to the kind of experiment: MIC assay (CLSI microdilution). It is filed as cell-based, Candida parapsilosis. The following applies: read-out: MIC. As to the method:
as §1, §2, §3, §4, §5, §6, §7, §8

In test [6] the test system is C. neoformans MMX 0634 ATCC 90112. As to the kind of experiment: MIC assay (CLSI microdilution). The settings on record: Cryptococcus neoformans, ATCC90112, RPMI plus 0.002% Tween-80; read-out: MIC. It is filed as cell-based. Here is the method: as §1, §2, §3, §4, §5, §6, §7, §8
Test [7] has as its system C. albicans MMX 2000 ATCC 10231. The experiment in a line: MIC assay (CLSI microdilution). The settings on record: Candida albicans, ATCC10231, RPMI plus 0.002% Tween-80; read-out: MIC. It is filed as cell-based. As to the method:
as §1, §2, §3, §4, §5, §6, §7, §8

[8] abbreviates: RPMI plus 0.002% Tween-80, read-out: MEC.
[9] abbreviates: RPMI plus 0.002% Tween-80, read-out: MIC.
The mark [10] stands for this setting: Without Tween-80, read-out: MEC.
[11] abbreviates: Without Tween-80, read-out: MIC.
Where [12] appears, read: ATCC22019, RPMI plus 0.002% Tween-80.

Structures are written as SMILES. Converted amounts (≈) assume the structure as drawn. Read-outs that look alike come from different tables or passages of the source. Numbered stars: 1 amine (or outer) side, 2 acyl side, 3 side chain; on linkers, the order of the positions; unused ones are H or OH. Square brackets hold non-standard residues; d marks the D form. Peptide text beside a SMILES is read from it. X30 = CN([C@@H](Cc1cccc(-c2ccc(Cl)c(Cl)c2)c1)C(=O)[*:2])[*:1]; X33 = CN([C@@H](Cc1cccc(-c2ccc3ccccc3c2)c1)C(=O)[*:2])[*:1]; X29 = CN([C@@H](Cc1cccc(-c2ccc(F)cc2)c1)C(=O)[*:2])[*:1]; Hmp(2R,3S) = CC[C@H](C)[C@@H](O)C(=O)O; NMeVal(β-OH) = CN[C@H](C(=O)O)C(C)(C)O; NMeV = CN[C@H](C(=O)O)C(C)C

Broadly, the MIC is the lowest concentration that inhibits growth of the organism. For the compound `CC[C@H](C)[C@@H]1NC(=O)[C@@H]2CCCN2C(=O)[C@H](Cc2cccc(-c3ccc(F)cc3)c2)N(C)C(=O)[C@H](Cc2ccccc2)NC(=O)[C@H](C(C)C)N(C)C(=O)[C@@H]([C@@H](C)CC)OC(=O)[C@H](C(C)(C)O)N(C)C(=O)[C@H](CC(C)C)NC(=O)[C@H](C(C)C)N(C)C1=O` [Compound 1] (cyclo(F[X29]PI[NMeV]L[NMeVal(β-OH)][Hmp(2R,3S)][NMeV])), the minimum inhibitory concentration (MIC) in test [1] is above 64 µg/mL; in test [2], 0.25 µg/mL; with A. fumigatus MMX 5944, above 64 µg/mL; in the test with A. flavus MMX 5948 it was above 64 µg/mL; in [3], above 64 µg/mL; in [4] (setting [9]), above 64 µg/mL. Further, the minimum inhibitory concentration (MIC) is above 64 µg/mL in test [4] (setting [11]); 0.12 µg/mL in test [5] (setting [12]); 1 µg/mL (≈ 0.836 µM) in test [5] (ATCC22019, Without Tween-80); 0.12 µg/mL in test [6]; 0.015 µg/mL in test [7]. Besides, the minimal effective concentration in test [1] was 0.5 µg/mL; in test [2] it was 0.25 µg/mL; with A. fumigatus MMX 5944, 0.5 µg/mL; in the test with A. flavus MMX 5948, 1 µg/mL; in test [3], 0.5 µg/mL; in test [4] (setting [8]), 0.5 µg/mL. The minimal effective concentration in test [4] (setting [10]) is 2 µg/mL.

Turning to `CC[C@H](C)[C@@H]1NC(=O)[C@@H]2CCCN2C(=O)[C@H](Cc2cccc(-c3ccc(Cl)c(Cl)c3)c2)N(C)C(=O)[C@H](Cc2ccccc2)NC(=O)[C@H](C(C)C)N(C)C(=O)[C@@H]([C@@H](C)CC)OC(=O)[C@H](C(C)(C)O)N(C)C(=O)[C@H](CC(C)C)NC(=O)[C@H](C(C)C)N(C)C1=O` [Compound 2] (cyclo(F[X30]PI[NMeV]L[NMeVal(β-OH)][Hmp(2R,3S)][NMeV])), the MIC was above 64 µg/mL in [1]; 0.5 µg/mL in test [2]; above 64 µg/mL with A. fumigatus MMX 5944; 1 µg/mL in the test with A. flavus MMX 5948; above 64 µg/mL in [3]; above 64 µg/mL in [4] (setting [9]). In addition, the MIC is above 64 µg/mL in test [4] (setting [11]); 0.5 µg/mL in [5] (setting [12]); 2 µg/mL (≈ 1.6 µM) in [5] (ATCC22019, Without Tween-80); 0.12 µg/mL in test [6]; 0.12 µg/mL in test [7]. The minimal effective concentration in test [1] was determined as 0.5 µg/mL; in test [2], 0.5 µg/mL; with A. fumigatus MMX 5944, 0.5 µg/mL; in the test with A. flavus MMX 5948, 0.5 µg/mL; in test [3], 0.25 µg/mL; in [4] (setting [8]), 0.5 µg/mL. Moreover, in test [4] (setting [10]), the minimal effective concentration was found to be 8 µg/mL.

For `CC[C@H](C)[C@@H]1NC(=O)[C@@H]2CCCN2C(=O)[C@H](Cc2cccc(-c3ccc4ccccc4c3)c2)N(C)C(=O)[C@H](Cc2ccccc2)NC(=O)[C@H](C(C)C)N(C)C(=O)[C@@H]([C@@H](C)CC)OC(=O)[C@H](C(C)(C)O)N(C)C(=O)[C@H](CC(C)C)NC(=O)[C@H](C(C)C)N(C)C1=O` [Compound 5] (cyclo(F[X33]PI[NMeV]L[NMeVal(β-OH)][Hmp(2R,3S)][NMeV])), the MIC in test [1] was above 64 µg/mL; in test [2] it was 0.5 µg/mL; in the test on A. fumigatus MMX 5944, above 64 µg/mL; in the test with A. flavus MMX 5948, 1 µg/mL; in [3], above 64 µg/mL; in test [4] (setting [9]), above 64 µg/mL. For the same compound, the MIC in test [4] (setting [11]) was above 64 µg/mL; in test [5] (setting [12]) it was 0.5 µg/mL; in [5] (ATCC22019, Without Tween-80) it was 2 µg/mL (≈ 1.63 µM); in test [6], 0.12 µg/mL; in test [7], 0.12 µg/mL. The minimal effective concentration (in test [1]; in test [2]; with A. fumigatus MMX 5944; in the test with A. flavus MMX 5948; in test [3]; in [4] (setting [8])) was 0.5 µg/mL each time. Besides, in test [4] (setting [10]), the minimal effective concentration was 4 µg/mL.
